Experiments:
[1] = tested on: human PBMC; assay: Human PBMC IL-12 p40 secretion, ELISA; format: cell-based; conditions: for IL-12 p40 response of human PBMC (in words): Example 1, FIG. 1, 16 hours, RNA 50 μg/ml with and without DOTAP, R-848 2 μg/ml, LPS 1 μg/ml, Pam3Cys 5 μg/ml, poly IC 50 μg/ml; for effect of DOTAP on the amount of IL-12 p40 secreted: Example 4, FIG. 5, presence versus absence of DOTAP, 16 hour incubation
Experimental: Human peripheral blood mononuclear cells (PBMCs) were isolated from healthy donors, plated at 3×10^5 cells/well, stimulated in vitro with various test and control immunostimulatory agents for 16 hours, and then analyzed by enzyme-linked immunosorbent assay (ELISA) using matched antibody pairs from BD-Pharmingen for secreted cytokines IL-12 p40 and TNF-α, performed according to the manufacturer's protocol. Also included were certain negative controls, including medium alone and DOTAP (10 μg/200 μl culture well; “Liposomes”) alone. The control immunostimulatory agents included the imidazoquinolone R-848 (2 μg/ml), lipopolysaccharide (LPS; 1 μg/ml), Pam3Cys (5 μg/ml), poly IC (50 μg/ml), and CpG DNA (50 μg/ml). These are reported ligands for TLR7, TLR4, TLR2, TLR3, and TLR9, respectively. Test immunostimulatory agents included the following RNA molecules, each at 50 μg/ml, with and without DOTAP (10 μg total “with Liposomes” and “without Liposomes”, respectively): GUGUUUAC alone; GUAGGCAC alone; GUGUUUAC in combination with GUAGGCAC; GUAGGA; GAAGGCAC; CUAGGCAC; CUCGGCAC; and CCCCCCCC. These RNA oligonucleotides each contained a phosphorothioate linkage between the penultimate and 3′ terminal nucleoside.
The experiments described in the preceding example were repeated with varied concentrations of RNA oligonucleotides in order to assess the dose-response behavior of human PBMCs to G,U-containing RNA oligonucleotides of the invention. A total of 10, 3 or 1 μg RNA was added to 10 μg DOTAP and then added to the 200 μl culture wells. After 16 hours IL-12 p40 and TNF-α ELISAs were performed as described in Example 1. […]
RNA oligomers GUGUGUGU, GUGUGUG, GUGUGU, GUGUG, GUGU, GUG, and GU, with and without DOTAP, were added over a range of concentrations to overnight cultures of human PBMC. Culture supernatants were harvested, and human TNF-α, IL-12 p40, and IFN-α were measured by ELISA using matched antibody pairs from BD-Pharmingen according to the manufacturer's protocol. […]

[2] = tested on: wild type murine macrophages; assay: Wild type murine macrophages in the presence of IFN-γ, IL-12 p40 ELISA; format: cell-based, mouse; conditions: FIG. 6 Panel A, 12 hours, RNA with DOTAP
Experimental: The following murine cells were isolated and incubated with various RNAs and other known TLR ligands in order to assess species-, cell type-, and signaling pathway-specificity: wild type macrophages in the presence of IFN-γ; MyD88-deficient macrophages in the presence of IFN-γ; J774 (mouse macrophage cell line); and RAW 264.7 (mouse macrophage cell line, e.g., ATCC TIB-71). Murine bone macrophages were generated from wild type or MyD88-deficient C57BL/6 mice by culturing bone marrow cells with 50 ng/ml M-CSF for 5 days. Cells were seeded at 25,000 cells/well and treated with 20 ng/ml IFN-γ for 16 hours. The murine macrophage cell lines RAW and J774 were seeded at 10,000 cells/well.
The following test and control agents were examined: R-848 (2 μg/ml), ODN 1668 (CpG DNA; 5′-[…]-3′; SEQ ID NO:7); LPS (1 μg/ml); poly IC (50 μg/ml); Pam3Cys (5 μg/ml); Ionomycin/TPA; the following RNA molecules, each with (“+Lipo”) and without DOTAP (10 μg/200 μl culture well): GUGUUUAC alone (RNA1); GUAGGCAC alone (RNA2); GUGUUUAC in combination with GUAGGCAC (RNA1/2); […] (RNA6; SEQ ID NO:8); […] (RNA9; SEQ ID NO:9); and the following DNA molecules, corresponding to RNA1, RNA2, and RNA1/2: GTGTTTAC alone (DNA1); GTAGGCAC alone (DNA2); and GTGTTTAC in combination with GTAGGCAC (DNA1/2). These RNA and DNA oligonucleotides each contained a phosphorothioate linkage between the penultimate and 3′ terminal nucleoside. RNA6 and RNA9 each contained in addition a phosphorothioate linkage between the penultimate and 5′ terminal nucleoside. RNA6 corresponds to a ribosomal RNA stem loop derived from Listeria monocytogenes. RNA9 corresponds to a stem loop derived from human immunodeficiency virus (HIV, an RNA retrovirus). The cells were cultured for 12 hours and supernatants were harvested. Murine IL-12 p40, IL-6, and TNF-α were measured by ELISA using matched antibody pairs from BD-Pharmingen according to the manufacturer's protocol.

With poly IC [reference compound] the “IL-12 p40 response of human PBMC (in words)” value (“IL-12 p40 response” for short) [1] was “responsive”, the “effect of DOTAP on the amount of IL-12 p40 secreted” value (“effect of DOTAP” for short) [1] was “reduced immunostimultory effect” and the “IL-12 p40 secretion by wild type murine macrophages” value (“IL-12 p40 secretion” below) [2] was “significant amounts”.
In the case of “lipopolysaccharide [LPS, reference compound]”, the “IL-12 p40 response” value [1] was “responsive”, the “effect of DOTAP” value [1] was “reduced immunostimultory effect” and the “IL-12 p40 secretion” value [2] was “significant amounts”.
CCCCCCCCCCCCCCCC(=O)N[C@@H](CSC[C@@H](COC(=O)CCCCCCCCCCCCCCC)OC(=O)CCCCCCCCCCCCCCC)C(=O)O [Pam3Cys, reference compound] was tested, and the “IL-12 p40 response” value [1] was “responsive”, the “effect of DOTAP” value [1] was “about the same immunostimultory effect” and the “IL-12 p40 secretion” value [2] was “significant amounts”.

Reference: patent publication US9428536B2, “Immunostimulatory G, U-containing oligoribonucleotides” (Zoetis Belgium SA, priority 2002, dated 2016)
